The results in this text go back to US20160083424A1, “COMPOSITIONS AND METHODS FOR TARGETING ANTIGEN-PRESENTING CELLS” (OSLO UNIVERSITETSSYKEHUS HF, priority 2013, published 2016).

Assay [1] deals with iDCs. Put plainly: Peptide binding by flow cytometry. The note with it: iDCs. The arrangement: species or system human. Here is the method: The cells were seeded onto 24-well plate (3×10^5/well/0.5 ml) in X-vivo 15 medium and incubated overnight at 37° C. Subsequently, they were incubated with 6IAF-conjugated peptides (5 μg/ml) for 30 min at 37° C., gently scraped, washed 3 times and then analyzed by flow cytometry. Binding was also performed at 4° C.
In general terms: Flow cytometry measures light scatter and fluorescence of single cells or particles in a stream.

In assay [2] the test system is iDCs. Put plainly: Peptide binding and internalization by fluorescence microscopy. Type of assay: cell-based, human. Particulars: 37° C. Here is the method: Then the medium was replaced with fresh medium and the cells were incubated with the peptides (5 μg/ml) for 60 min at 37° C. followed by 5 min incubation with Hoechst 33342 (Invitrogen Dynal AS, Oslo, Norway). The cells were washed twice with PBS and fixed with 4% paraformaldehyde for 15 min at 4° C. After washing, slides were covered with Dako cytomation fluorescent mounting medium and then images were taken with either epifluorescence (Leica DM RHC, Leica Microscopy As, Oslo, Norway) or confocal microscopy (Zeiss LSM 510, […]).

Assay [3] relates to pp65-specific naïve T cells. In words: Induction of CMV-pp65-specific T cells from naive donor repertoire, dextramer staining. The assay is classed as cell-based, human. Particulars: CD45RO-depleted PBMCs, HLA-A2+/CMV negative donors, IL-7, representative example. Here is the method:
(§1) PBMC from HLA-A2/CMV+ donors were thawed, washed and then incubated with the peptides (5 μg/ml) for 60 min at 4° C. Subsequently, the cells were washed twice and then plated at 2×10^5 cells per well in 96-well tissue culture plate. Cells were cultured for 5 days and subsequently they were pulsed with [^3H] thymidine and harvested 16 h later. In some experiments, the cells were cultured for 12 days and then stained with dextramers specific for pp65 NLVPMVATV (SEQ ID NO:19) epitope. Monocyte-depleted PBMCs were also used. To analyze primary immune responses against pp65 protein, PBMCs from HLA-A2+/CMV-negative donors were used. Autologous DCs were incubated with either NW-pp65 or GA-pp65 peptide (5 μg/ml) at 4° C. for 1 h, followed by three washes to remove unbound peptides. Subsequently, the cells were incubated with CD45RO-depleted PBMC (responder cells) and co-cultured for 10 days at ratio 1/10 (DC to responder cells) in X-vivo 15 medium supplemented with 10 ng/ml human IL-7 for 10 days. […]
Dextramers with CMV (NLVPMVATV) (SEQ ID NO:19) and HIV (ILKEPVHGV) (SEQ ID NO:22) HLA-A2 specific antigens were obtained from Immudex (Copenhagen, Denmark). […] Cells were washed and resuspended in SB containing 1% paraformaldehyd and analyzed on a BD SLR II flow cytometer. The data were analyzed using FCS Express (De Novo Software, Los Angeles, Calif., USA). […]

Assay [4] deals with PBMCs. Put plainly: Autologous stimulation of PBMCs with pp65 targeted peptides, [3H] thymidine incorporation. The assay is classed as cell-based, human. The note with it: whole PBMCs, peptides at 4° C., 5 days at 37° C. Here is the method: as §1, with “days. After 2 rounds of stimulation (8 days each) with autologous DC loaded with peptides, the cells were stained with dextramers specific for pp65 NLVPMVATV (SEQ ID NO:19) epitope. To test spontaneous uptake of peptides by DCs, PBMCs from HLA-A2+/CMV positive donors were incubated at 37° C. with various concentrations of untargeted or targeted pp65 peptide for 90 min.” for “days.”
A general note: Dividing cells build labelled thymidine or BrdU into new DNA.

Assay [5] relates to CD8 T cells against NLVPMVATV epitope. Put plainly: Dextramer staining of CD8 T cells after PBMC stimulation with pp65 peptides. The assay is classed as cell-based, human. Here is the method:
(§2) PBMC from HLA-A2/CMV+ donors were thawed, washed and then incubated with the peptides (5 μg/ml) for 60 min at 4° C. Subsequently, the cells were washed twice and then plated at 2×10^5 cells per well in 96-well tissue culture plate. Cells were cultured for 5 days and subsequently they were pulsed with [^3H] thymidine and harvested 16 h later. In some experiments, the cells were cultured for 12 days and then stained with dextramers specific for pp65 NLVPMVATV (SEQ ID NO:19) epitope. Monocyte-depleted PBMCs were also used. To analyze primary immune responses against pp65 protein, PBMCs from HLA-A2+/CMV-negative donors were used. Autologous DCs were incubated with either NW-pp65 or GA-pp65 peptide (5 μg/ml) at 4° C. for 1 h, followed by three washes to remove unbound peptides. Subsequently, the cells were incubated with CD45RO-depleted PBMC (responder cells) and co-cultured for 10 days at ratio 1/10 (DC to responder cells) in X-vivo 15 medium supplemented with 10 ng/ml human IL-7 for 10 days. After 2 rounds of stimulation (8 days each) with autologous DC loaded with peptides, the cells were stained with dextramers specific for pp65 NLVPMVATV (SEQ ID NO:19) epitope. To test spontaneous uptake of peptides by DCs, PBMCs from HLA-A2+/CMV positive donors were incubated at 37° C. with various concentrations of untargeted or targeted pp65 peptide for 90 min. Subsequently, the cells were washed to remove unbound peptides and cultured at 37° C. for 12 days and then stained with dextramers specific for pp65 NLVPMVATV (SEQ ID NO:19) epitope.
Dextramers with CMV (NLVPMVATV) (SEQ ID NO:19) and HIV (ILKEPVHGV) (SEQ ID NO:22) HLA-A2 specific antigens were obtained from Immudex (Copenhagen, Denmark). Antibodies against human CD8, CD19 and CD56 were obtained from eBioscience (San Diego, Calif., USA). Briefly, around 10^6 cells were washed and resuspended in 50 μl staining buffer SB (PBS with 0.1% human serum albumin and 0.1% NaN3) containing 1 mg/ml aggregated α-globulin and then stained with dextramer for 10 min in the dark at room temperature. Subsequently, antibodies against CD8, CD19 and CD56 were added and incubation continued for additional 20 min. Cells were washed and resuspended in SB containing 1% paraformaldehyd and analyzed on a BD SLR II flow cytometer. The data were analyzed using FCS Express (De Novo Software, Los Angeles, Calif., USA).
Monocytes have the capacity to differentiate into macrophages or inflammatory DCs in-vitro and in-vivo (Auffray et al., (2009) Annu Rev. Immunol. 27, 669-92). Given that the NW peptide bound to blood monocytes, it was investigated whether this binding affects T-cell activation. Therefore, proliferation assays were performed with whole PBMCs. […]

Assay [6] concerns PBMC cultures from CMV-positive donors. Put plainly: IFN-γ production in PBMC cultures. The assay is classed as cell-based, human. Here is the method: (A) PBMCs from HLA-A2+/CMV-positive donors were incubated with the indicated fusion peptides for 60 min at 4° C., washed and then incubated at 37° C. for […]. T-cell proliferation was monitored by thymidine incorporation. (B) Dextramer staining of CD8 T cells against NLVPMVATV (SEQ ID NO:19) epitope. (C) As in A and B, but monocyte-depleted PBMCs were used. (D) INF-γ and IL-10 levels in PBMC culture supernatants determined by ELISA.
Next, the immunostimulatory potential of the NW-pp65 fusion peptide was evaluated by assessing its ability to stimulate the overall IFN-γ and IL-10 production in PBMC cultures from CMV-positive donors (FIG. 8D).

The test system of assay [7] is PBMCs. In words: Targeted vs spontaneous uptake of pp65 peptides at 37° C., dextramer staining. Type of assay: cell-based, human. The note with it: PBMCs incubated at 37° C., 12 days, relative to untargeted peptide, particularly at lower peptide concentrations. Here is the method: as §2, with “Subsequently, the cells were washed to remove unbound peptides and cultured at 37° C. for 12 days and then stained with dextramers specific for pp65 NLVPMVATV (SEQ ID NO:19) epitope.” left out

Take “NWYLPWLGTNDWGCFTWPPWQAGILARNLVPMVATVQGQNLKYQEFFWDANDIYRIFAEL [NW-60-mer, 48-mer CMV pp65 peptide fused to NW peptide]”: the “binding of 6IAF-conjugated pp65 fusion peptides to DCs” value in the assay on iDCs [1] is “bound to iDCs”. For the same sequence, in the assay on iDCs [2], the “internalization by iDCs (confocal microscopy)” value is given as “internalized”. Moreover, the “pp65-specific naïve T cells (dextramer staining)” value in assay [3] was determined as 0.22%. The “T-cell proliferation ([3H]-thymidine)” value in the assay with PBMCs [4] was “stimulated T-cell proliferation”. For the same sequence, the “CTL response (dextramer staining)” value in assay [5] (monocyte-depleted PBMCs) came out at 5.60%; in assay [5] (whole PBMCs, n=3) it was 8.85%. Besides, in assay [6] (ELISA of PBMC culture supernatants, relative to untargeted peptide, n=4), the “total amounts of secreted IFN-γ” value was “significant increase”. Further, the “proportion of CD8 and CD4 T cells that produced IFN-γ” value in assay [6] (PBMCs from HLA-A2+/CMV positive) was “significant increase”. Also, in the assay with PBMCs [7], the “expansion of CD8 T cells after uptake at 37° C.” value is “significant expansion of CD8 T cells”.
